Measurements: US10508104B2, “6-hydroxy-5-(phenyl/heteroarylsulfonyl)pyrimidin-4(1H)-one as APJ agonists” (Bristol-Myers Squibb Company, priority 2016, dated 2019)

biological target: human APJ receptor (Homo sapiens (Human), UniProt P35414); assay: Intracellular cAMP accumulation assay (APJ hcAMP, HTRF); assay type: cell-based; conditions: HEK293 cells stably expressing human APJ receptor; inhibition of forskolin-mediated cAMP production; read-out: Human APJ cAMP EC50 Potency range
In short: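 HEK293 cells stably expressing human APJ, 5,000 per well, incubated 30 min at rt with compound, […] and 2 μM forskolin. cAMP measured by HTRF against a cAMP standard curve as inhibition of forskolin-driven production. EC50 from variable-slope sigmoidal fit.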

Chain of human APJ receptor (P35414 whole entry): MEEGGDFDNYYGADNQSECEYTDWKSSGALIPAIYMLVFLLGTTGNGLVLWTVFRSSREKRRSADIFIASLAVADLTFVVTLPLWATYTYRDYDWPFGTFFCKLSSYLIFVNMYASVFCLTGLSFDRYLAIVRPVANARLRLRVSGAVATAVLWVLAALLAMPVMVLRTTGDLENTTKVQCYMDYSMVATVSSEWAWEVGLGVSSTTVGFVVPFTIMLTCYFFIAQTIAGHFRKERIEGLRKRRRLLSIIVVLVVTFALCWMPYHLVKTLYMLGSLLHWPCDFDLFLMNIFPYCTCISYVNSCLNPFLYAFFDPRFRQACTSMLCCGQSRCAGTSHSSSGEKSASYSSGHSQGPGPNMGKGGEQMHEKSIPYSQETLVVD

Compound | EC50 [nM]
CCOCc1nc(=O)c(S(=O)(=O)c2ccc(Br)cc2)c(O)n1[C@@H](COC)c1cc(F)cc(F)c1 [Example 370, 5-(4-bromobenzenesulfonyl)-1-[(1R)-1-(3,5-difluorophenyl)-2-methoxyethyl]-2-(ethoxymethyl)-6-hydroxy-1,4-dihydropyrimidin-4-one] | 0.01 to 10
CCCCc1nc(=O)c(S(=O)(=O)c2ccc(-c3ccncc3C)cc2)c(O)n1[C@@H](CC)c1cccc(C#N)n1 [Example 550, 6-[(1S)-1-{2-butyl-6-hydroxy-5-[4-(3-methylpyridin-4-yl)benzenesulfonyl]-4-oxo-1,4-dihydropyrimidin-1-yl}propyl]pyridine-2-carbonitrile] | 0.01 to 10
CC[C@@H](c1cc(F)cc(C#N)c1)n1c(CC2CC2)nc(=O)c(S(=O)(=O)c2ccc(-c3ccc(F)cc3C(N)=O)cc2)c1O [Example 473, 4′-({1-[(1S)-1-(3-cyano-5-fluorophenyl)propyl]-2-(cyclopropylmethyl)-6-hydroxy-4-oxo-1,4-dihydropyrimidin-5-yl}sulfonyl)-4-fluoro-[1,1′-biphenyl]-2-carboxamide] | 0.01 to 10
CCCCc1nc(=O)c(S(=O)(=O)c2ccc(-c3ccccc3C(N)=O)cn2)c(O)n1[C@@H](CC)c1cccc(C#N)c1 [Example 467, 2-[6-({2-butyl-1-[(1S)-1-(3-cyanophenyl)propyl]-6-hydroxy-4-oxo-1,4-dihydropyrimidin-5-yl}sulfonyl)pyridin-3-yl]benzamide] | 0.01 to 10
CCCCc1nc(=O)c(S(=O)(=O)[C@H]2CC[C@@H](O)CC2)c(O)n1-c1c(CC)cccc1CC [Example 554, 2-butyl-1-(2,6-diethylphenyl)-6-hydroxy-5-{[(1s,4s)-4-hydroxycyclohexyl]sulfonyl}-1,4-dihydropyrimidin-4-one] | 0.01 to 10
CCCCc1nc(=O)c(S(=O)(=O)c2ccc(-c3ccnc(F)c3C)cn2)c(O)n1[C@@H](CC)c1cccc(C#N)c1 [Example 456, 3-[(1S)-1-[2-butyl-5-({2′-fluoro-3′-methyl-[3,4′-bipyridine]-6-yl}sulfonyl)-6-hydroxy-4-oxo-1,4-dihydropyrimidin-1-yl]propyl]benzonitrile] | 0.01 to 10
CCCCc1nc(=O)c(S(=O)(=O)c2ccc(-c3cccn(C)c3=O)cc2)c(O)n1[C@@H](CC)c1cccc(C#N)c1 [Example 504, 3-[(1S)-1-{2-butyl-6-hydroxy-5-[4-(1-methyl-2-oxo-1,2-dihydropyridin-3-yl)benzenesulfonyl]-4-oxo-1,4-dihydropyrimidin-1-yl}propyl]benzonitrile] | 0.01 to 10
CCCCc1nc(=O)c(S(=O)(=O)c2ccc(-c3ccncc3C)cc2)c(O)n1[C@@H](CC)c1cc(F)cc(F)c1 [Example 427, 2-butyl-1-[(1S)-1-(3,5-difluorophenyl)propyl]-6-hydroxy-5-[4-(3-methylpyridin-4-yl)benzenesulfonyl]-1,4-dihydropyrimidin-4-one] | 0.01 to 10
Cc1c(-c2ccc(S(=O)(=O)c3c(O)n([C@H](c4cccc(C#N)c4)C4CC4)c(CC4CC4)nc3=O)cc2)ccnc1F [Example 498, 3-[(S)-cyclopropyl[2-(cyclopropylmethyl)-5-[4-(2-fluoro-3-methylpyridin-4-yl)benzenesulfonyl]-6-hydroxy-4-oxo-1,4-dihydropyrimidin-1-yl]methyl]benzonitrile] | 0.01 to 10
CCOCc1nc(=O)c(S(=O)(=O)c2ccc(-c3ccc(F)nc3C)c(F)c2)c(O)n1C(COC)c1cccc(F)c1 (centres unmarked) [Example 376, 2-(ethoxymethyl)-5-[3-fluoro-4-(6-fluoro-2-methylpyridin-3-yl)benzenesulfonyl]-1-[1-(3-fluorophenyl)-2-methoxyethyl]-6-hydroxy-1,4-dihydropyrimidin-4-one] | 0.01 to 10
COc1cccc(OC)c1-n1c(-c2ccc(F)cc2)nc(=O)c(S(=O)(=O)c2ccc(C3CC3)cc2)c1O [Example 278, 5-((4-Cyclopropylphenyl)sulfonyl)-1-(2,6-dimethoxyphenyl)-2-(4-fluorophenyl)-6-hydroxypyrimidin-4(1H)-one] | 10 to 100
COc1cccc(OC)c1-n1c(-c2ccc(F)cc2)nc(=O)c(S(=O)(=O)c2ccc(-c3cccnc3C)cc2)c1O [Example 271, 1-(2,6-Dimethoxyphenyl)-2-(4-fluorophenyl)-6-hydroxy-5-((4-(2-methylpyridin-3-yl)phenyl)sulfonyl)pyrimidin-4(1H)-one] | 0.01 to 10
CCCCc1nc(=O)c(S(=O)(=O)c2ccc(-c3ccnc(F)c3C)cc2)c(O)n1[C@@H](CC)c1ccc(F)cc1 [Example 424, 2-butyl-5-[4-(2-fluoro-3-methylpyridin-4-yl)benzenesulfonyl]-1-[(1S)-1-(4-fluorophenyl)propyl]-6-hydroxy-1,4-dihydropyrimidin-4-one] | 0.01 to 10

same assay, conditions: human APJ, cAMP accumulation; read-out: Human APJ cAMP EC50 Potency range

Compound | EC50 [nM]
CC[C@@H](c1ccccc1)n1c(COC(C)C)nc(=O)c(S(=O)(=O)c2ccc(-c3ccnc(F)c3C)cc2)c1O [Example 312, 5-[4-(2-fluoro-3-methylpyridin-4-yl)benzenesulfonyl]-6-hydroxy-1-[(1S)-1-phenylpropyl]-2-[(propan-2-yloxy)methyl]-1,4-dihydropyrimidin-4-one] | 0.01 to 10
COc1cccc(OC)c1-n1c(-c2cncc(C)c2)nc(=O)c(S(=O)(=O)c2ccc(Br)cc2)c1O [Example 270, 5-(4-bromobenzenesulfonyl)-1-(2,6-dimethoxyphenyl)-6-hydroxy-2-(5-methylpyridin-3-yl)-1,4-dihydropyrimidin-4-one] | 10 to 100
CCOCc1nc(=O)c(S(=O)(=O)c2ccc(-c3ccc(F)nc3)cc2)c(O)n1[C@H]1CCc2ccccc21 [Example 325, 1-[(1S)-2,3-dihydro-1H-inden-1-yl]-2-(ethoxymethyl)-5-[4-(6-fluoropyridin-3-yl)benzenesulfonyl]-6-hydroxy-1,4-dihydropyrimidin-4-one] | 0.01 to 10
CCCCc1nc(=O)c(S(=O)(=O)c2ccc(-c3cccnc3C)cc2)c(O)n1[C@@H](CC)c1ccc(C#N)cc1 [Example 266, 4-[(1S)-1-{2-butyl-6-hydroxy-5-[4-(2-methylpyridin-3-yl)benzenesulfonyl]-4-oxo-1,4-dihydropyrimidin-1-yl}propyl]benzonitrile] | 0.01 to 10
COC[C@@H](c1ccccc1)n1c(C2CCCO2)nc(=O)c(S(=O)(=O)c2ccc(-c3ccncc3C)cc2)c1O (single isomer, unassigned) [Example 352] | 0.01 to 10
CCOCc1nc(=O)c(S(=O)(=O)c2ccc(-c3cccnc3C)cc2)c(O)n1[C@@H](CC)c1ccccc1 [Example 310, 2-(ethoxymethyl)-6-hydroxy-5-[4-(2-methylpyridin-3-yl)benzenesulfonyl]-1-[(1S)-1-phenylpropyl]-1,4-dihydropyrimidin-4-one] | 0.01 to 10
CCCCc1nc(=O)c(S(=O)(=O)c2ccc(-c3cccnc3C)cc2)c(O)n1[C@@H](C)c1ccccc1OC [Example 231, 2-butyl-6-hydroxy-1-[(1S)-1-(2-methoxyphenyl)ethyl]-5-[4-(2-methylpyridin-3-yl)benzenesulfonyl]-1,4-dihydropyrimidin-4-one] | 0.01 to 10

same assay, conditions: human APJ, intracellular cAMP accumulation; read-out: Human APJ cAMP EC50 Potency range

Compound | EC50 [nM]
CCCCc1nc(=O)c(S(=O)(=O)c2ccc(-c3cnn(C(C)C)c3)cc2)c(O)n1-c1c(OC)cccc1OC [Example 10, 2-butyl-1-(2,6-dimethoxyphenyl)-6-hydroxy-5-{4-[1-(propan-2-yl)-1H-pyrazol-4-yl]benzenesulfonyl}-1,4-dihydropyrimidin-4-one] | 0.01 to 10
CCCCc1nc(=O)c(S(=O)(=O)C2CCN(CC)CC2)c(O)n1-c1c(OC)cccc1OC [Example 108, 2-butyl-1-(2,6-dimethoxyphenyl)-5-[(1-ethylpiperidin-4-yl)sulfonyl]-6-hydroxy-1,4-dihydropyrimidin-4-one] | 0.01 to 10
CCCCc1nc(=O)c(S(=O)(=O)c2ccc(-c3ccc(F)nc3)cc2)c(O)n1[C@@H](C)c1cccc(C#N)c1 [Example 141, 3-[(1S)-1-{2-butyl-5-[4-(6-fluoropyridin-3-yl)benzenesulfonyl]-6-hydroxy-4-oxo-1,4-dihydropyrimidin-1-yl}ethyl]benzonitrile] | 0.01 to 10
CCCCc1nc(=O)c(S(=O)(=O)c2ccc(-c3ccc4ncccc4c3)cc2)c(O)n1-c1c(OC)cccc1OC [Example 54, 2-butyl-1-(2,6-dimethoxyphenyl)-6-hydroxy-5-[4-(quinolin-6-yl)benzenesulfonyl]-1,4-dihydropyrimidin-4-one] | 0.01 to 10
CCCCc1nc(=O)c(S(=O)(=O)c2ccc(-c3ccnc(C)c3)cc2)c(O)n1-c1c(OC)cccc1OC [Example 27, 2-butyl-1-(2,6-dimethoxyphenyl)-6-hydroxy-5-[4-(2-methylpyridin-4-yl)benzenesulfonyl]-1,4-dihydropyrimidin-4-one] | 0.01 to 10
CCCCc1nc(=O)c(S(=O)(=O)c2ccc(-c3cccc(C#N)c3)cc2)c(O)n1-c1c(OC)cccc1OC [Example 47, 3-(4-{[2-butyl-1-(2,6-dimethoxyphenyl)-6-hydroxy-4-oxo-1,4-dihydropyrimidin-5-yl]sulfonyl}phenyl) benzonitrile] | 0.01 to 10
COc1cccc(OC)c1-n1c(CCC(C)C)nc(=O)c(S(=O)(=O)c2cccc(-c3cn(C)nc3C(F)(F)F)c2)c1O [Example 20, 1-(2,6-dimethoxyphenyl)-6-hydroxy-5-{3-[1-methyl-3-(trifluoromethyl)-1H-pyrazol-4-yl]benzenesulfonyl}-2-(3-methylbutyl)-1,4-dihydropyrimidin-4-one] | 0.01 to 10
5-(4- bromobenzenesulfonyl)- 2-butyl-3- [cyclopropyl(phenyl) methyl]-6-hydroxy-3,4- dihydropyrimidin-4-one [Example 186] | 10 to 100
CCCCc1nc(=O)c(S(=O)(=O)c2ccc(C(=O)N3CCOCC3)cc2)c(O)n1-c1c(OC)cccc1OC [Example 96, 2-butyl-1-(2,6-dimethoxyphenyl)-6-hydroxy-5-[4-(morpholine-4-carbonyl)benzenesulfo-nyl]-1,4-dihydropyrimidin-4-one] | 0.01 to 10
